Row | melting point [°C] | Structure (SMILES)
1 | 186 to 187 | N#C/C(=N\Nc1c(Cl)cc(C(F)(F)F)cc1Cl)c1ccc(C#N)cc1 [Compound 3.4, 4-{1-[(2,6-dichloro-4-trifluoromethylphenyl)hydrazono]-2-nitriloethyl}benzonitrile]
2 | 164 to 165 | N#C/C(=N\Nc1c(Cl)cc(C(F)(F)F)cc1Cl)c1ccc(Cl)cc1 [Compound 3.16, 4-{1-[(2,6-dichloro-4-trifluoromethylphenyl)hydrazono]-2-nitriloethyl}chlorobenzene]
